Common to all, as to experiment: FACS analysis on PI stained tumor cells, G2/M arrest
Format in all cases: cell-based
A general note: A flow cytometer gives signals particle by particle.

One experiment deals with A431. The settings on record: Homo sapiens, A-431; A431 (Vulva), 24 hrs; read-out: FACS Analysis G2M-Arrest EC50. From the text:
(§1) FACS Analysis on PI Stained Tumor Cells
(§2) Propidium iodine (PI) binds stoichiometrically to double stranded DNA and thus is a suitable agent to measure the DNA content of cells in order to determine the percentage of cells residing in various cell cycle stages (G0/1-, S- and G2/M-phases), whereas cells in G0 or G1 phase do have a diploid DNA content (2N) cells in G2 and M-phase (mitosis) do have a doubled (4N) DNA content.
(§3) Cell culture: The various human tumor cell lines can be purchased from American Type Culture Collection (ATCC) or the German Collection of Microorganisms and Cell Cultures (DSMZ) and cultivated in 75 to 175 cm^2 tissue culture flasks in the medium indicated by the supplier. The cells are maintained at 37° C. and 5% CO2 in a humidified atmosphere, with an appropriate split ratio. Logarithmically growing cells are used for the assays.
(§4) Assay conditions: On day one of the experiment 1×10^6 tumor cells are plated in 15 ml medium onto each 75 cm^2 tissue culture flask and the cultures are returned to the incubator. On the next day serial twofold dilutions (100× concentrated) of the inhibitor are prepared in tissue culture medium containing 10% DMSO. 150 μl of the 100× concentrated dilution is added to the 15 ml medium in the flask. As control DMSO is given into a separate flask to yield a final concentration of 0.1%. Typical final concentrations used are 1.6, […], 0.4, 0.2, 0.1, 0.05, 0.025, 0.0125, 0.00625 μM in medium containing 0.1% DMSO. After 24 hrs of incubation cells are harvested by 2× wash with PBS and subsequent addition of trypsin/EDTA. Trypsinized cells are washed off the plastic with 1% BSA in PBS. Non-adherent cells in the medium and cells in the PBS wash fluids are pelleted together with the trypsinized cells by centrifuging them for 5 min at 1000 rpm at 4° C. The supernatants are discarded and the pellet is washed twice with PBS. After aspiration of the supernatants pellets are resuspended in the residual PBS (˜100 μl). For cell fixation, 15 ml test tubes (Falcon) with 5 ml of 80% cold ethanol are prepared and the cell suspension is added slowly and kept for at least 2 h or overnight at minus 20° C. Fixed cells are pelleted, washed once with PBS and the cell pellet is then resuspended in 2 ml of 0.25% Triton X-100 in PBS. After 5 min incubation on ice, 5 ml of PBS is added to each sample and the sample is again centrifuged at 1000 rpm for 5 min at 4° C. The supernatant is discarded and the pellet is resuspended in 0.5 ml propidium iodine (PI) staining solution (0.1% RNase and 10 μg/ml propidium iodine in PBS). The cells are incubated for 20 min in the dark and subsequently transferred to 5 ml polystyrene round-bottom tubes.
(§5) Data analysis: Analysis of the DNA content of the cells can be performed using a FACS analyzer equipped with an argon laser (500 mW, emission 488 nm) and the use of the DNA Cell Quest analysis software (Beckton Dickinson). The logarithmic PI fluorescence is determined in a band-pass filter (Beckton Dickinson 585/43). Quantification of the cell populations residing in the individual cell cycle phases (e.g. G0/G1-, S- and G2/M-phases) is done with the ModFit LT software package from Becton Dickinson. An EC50 value for cells arrested at the G2/M-phase of the cell cycle is calculated by using a sigmoidal curve analysis program (Graph Pad Prism version 3.03).

A further experiment concerns A549. To be noted: Homo sapiens; A549 (Lung), 24 hrs; read-out: FACS Analysis G2M-Arrest EC50.
From the text: as §1, §2, §3, §4, §5

For another experiment, the system named is BxPC-3. The settings on record: Homo sapiens; BxPC-3 (Pancreas), 24 hrs; read-out: FACS Analysis G2M-Arrest EC50.
From the text: as §1, §2, §3, §4, §5

The subject of a further experiment is FaDu. To be noted: Homo sapiens; FaDu (Head and Neck), 24 hrs; read-out: FACS Analysis G2M-Arrest EC50.
From the text: as §1, §2, §3, §4, §5

A further experiment has as its system GRANTA-519. To be noted: Homo sapiens; GRANTA-519 (Lymphoma), 24 hrs; read-out: FACS Analysis G2M-Arrest EC50.
From the text: as §1, §2, §3, §4, §5

In the next experiment the test system is H4. To be noted: Homo sapiens; H4 (Brain), 24 hrs; read-out: FACS Analysis G2M-Arrest EC50.
From the text: as §1, §2, §3, §4, §5

For a further experiment, the system named is HeLa S3. To be noted: Homo sapiens; HeLa S3 (Cervix), 24 hrs; read-out: FACS Analysis G2M-Arrest EC50.
From the text: as §1, §2, §3, §4, §5

In another experiment the test system is HepG2. To be noted: Homo sapiens; HepG2 (Liver), 24 hrs; read-out: FACS Analysis G2M-Arrest EC50.
From the text: as §1, §2, §3, §4, §5

The test system of another experiment is MDA-MB-435S. The settings on record: Homo sapiens; MDA-MB-435S (Breast), 24 hrs; read-out: FACS Analysis G2M-Arrest EC50.
From the text: as §1, §2, §3, §4, §5

Another experiment has as its system NCI-H460. To be noted: Homo sapiens; NCI-H460 (Lung), 24 hrs; read-out: FACS Analysis G2M-Arrest EC50.
From the text: as §1, §2, §3, §4, §5

In another experiment the test system is NCI-H520. The settings on record: Homo sapiens; NCI-H520 (Lung), 24 hrs; read-out: FACS Analysis G2M-Arrest EC50.
From the text: as §1, §2, §3, §4, §5

A further experiment has as its system PC-3. The settings on record: Homo sapiens; PC-3 (Prostate), 24 hrs; read-out: FACS Analysis G2M-Arrest EC50.
From the text: as §1, §2, §3, §4, §5

Another experiment relates to Raji. To be noted: Homo sapiens; Raji (Lymphoma), 24 hrs; read-out: FACS Analysis G2M-Arrest EC50.
From the text: as §1, §2, §3, §4, §5

The test system of a further experiment is SKOV-3. To be noted: Homo sapiens, SK-OV-3; SKOV-3 (Ovary), 24 hrs; read-out: FACS Analysis G2M-Arrest EC50.
From the text: as §1, §2, §3, §4, §5

For the next experiment, the system named is Saos-2. To be noted: Homo sapiens; Saos-2 (Bone), 24 hrs; read-out: FACS Analysis G2M-Arrest EC50.
From the text: as §1, §2, §3, §4, §5

This passage reports EC50 results from patent US8058270B2, “Dihydropteridinones for the treatment of cancer diseases” (Boehringer Ingelheim International GmbH, priority 2004, dated 2011).

Molecules are shown by their SMILES.

Broadly, the EC50 is the concentration needed to bring the measured effect to its halfway point. For `CC[C@@H]1C(=O)N(C)c2cnc(Nc3ccc(C(=O)NC4CCN(C)CC4)cc3OC)nc2N1C1CCCC1` [4-[[(7R)-8-cyclopentyl-7-ethyl-5,6,7,8-tetrahydro-5-methyl-6-oxo-2-pteridinyl]amino]-3-methoxy-N-(1-methyl-4-piperidinyl)-benzamide], the EC50 stood at 6 nM in the experiment with A431; 14 nM with A549; 22 nM in the experiment on BxPC-3; 7 nM in the experiment on FaDu; 12 nM with GRANTA-519; 39 nM in the experiment on H4. Besides, the 50% effective concentration (EC50) in the experiment on HeLa S3 came to 16 nM; in the experiment on HepG2, 39 nM; in the experiment with MDA-MB-435S, 38 nM; in the experiment with NCI-H460, 32 nM; in the experiment on NCI-H520 it was 18 nM; in the experiment on PC-3, 12 nM. In addition, the 50% effective concentration (EC50) in the experiment on Raji stood at 20 nM; in the experiment with SKOV-3, 11 nM; in the experiment on Saos-2, 11 nM.
